In patent US10272117B2, “Methods of using an activator of cereblon for neural cell expansion and the treatment of central nervous system disorders” (Celgene Corporation, priority 2014, dated 2019):

System: zebrafish embryos
Experiment: Brain size, morphology and volume of zebrafish embryos (microscopy, MRI)
Type: in vivo
Details: for volume of the whole brain compared to untreated fish: MRI; for brain size: day 2; for head size compared to untreated embryos: microscopic pictures
Protocol: An aqueous solution of a 25-mer antisense morpholino oligonucleotide (AMO, Gene Tools, LLC) corresponding to the vicinity of the translation initiation codon in the cDNA sequence of the gene to be knocked down ([…] injection conditions were the same as those used for RNA) was injected into the embryos at the 1-cell stage. The sequence of AMO used for the CRBN gene knockdown is 5′-[…]-3′ (SEQ ID NO: 3). The sequence of AMO used for the Lhx2 gene knockdown is 5′-[…]-3′ (SEQ ID NO:4). The sequence of AMO used for the BRD7 gene knockdown is 5′-[…]-3′ (SEQ ID NO:1). The sequence of AMO used for the Ikaros gene knockdown is 5′-[…]-3′ (SEQ ID NO:2). […]
In order to examine the effect of antagonists of BRD7 on brain growth, BRD7 was knocked down or over-expressed in zebrafish embryos. Knockdown of BRD7 was performed by microinjection of antisense morpholino oligonucleotides (AMO). Overexpression of BRD7 was performed by microinjection of synthesized capped mRNA. AMO or capped mRNA was introduced into one-cell stage embryos by using a nitrogen gas-pressure microinjector IM 300 (Narishige). Conditions for microinjection were as follows: gas pressure was about 15 picosiemens; release period was about 30 to about 50 milliseconds per single injection; concentrations of AMOs and capped mRNA were 400 ng/μl and 250 ng/μl in nuclease-free water, respectively. Capped mRNAs were synthesized in vitro using the mMESSAGE mMachine® in vitro transcription kit (Ambion) from cDNAs cloned into pCS2+ plasmids.
The brains of the embryos were examined for morphology and volume by magnetic resonance imaging (MRI). FIGS. 9A, 9B, and 9C show microscopic pictures of the untreated, the BRD7-knockdown, and the BRD7-overexpressing zebrafish embryos, respectively. FIGS. 9D, 9E, and 9F show fluorescent microscopic pictures of the brain regions of the untreated, the BRD7-knockdown, and the BRD7-overexpressing zebrafish embryos, respectively. As shown in these figures, the BRD7-knockdown zebrafish embryos had bigger heads than the untreated embryos. […] The volume of the whole brain of the BRD7-knockdown fish was much bigger than that of the untreated fish, while for the BRD7-overexpressing fish, the brain volume was smaller.
In order to examine the effect of antagonists of Ikaros on brain growth, Ikaros was knocked down or over-expressed in zebrafish embryos. Knockdown of Ikaros was performed by microinjection of antisense morpholino oligonucleotides (AMO). Overexpression of Ikaros was performed by injection of synthesized capped mRNA. AMO or capped mRNA was introduced into one-cell stage embryos by using a nitrogen gas-pressure microinjector IM 300 (Narishige). Conditions for microinjection were as follows: gas pressure was about 15 picosiemens; release period was about 30 to about 50 milliseconds per single injection; concentrations of AMOs and capped mRNA were 400 ng/μl and 250 ng/μl in nuclease-free water, respectively. Capped mRNAs were synthesized in vitro using the mMESSAGE mMachine® in vitro transcription kit (Ambion) from cDNAs cloned into pCS2+ plasmids.
The brains of the embryos were examined for morphology and volume by magnetic resonance imaging (MRI). FIGS. 15A, 15B, and 15C show microscopic pictures of untreated, Ikaros-knockdown, and Ikaros-overexpressing zebrafish embryos at 55 hpf, respectively. As shown in these figures, the Ikaros-knockdown fish had bigger heads than the untreated embryos. […] The volume of the whole brain of the Ikaros-knockdown fish was much bigger than that of the untreated fish, while for the Ikaros-overexpressing fish, the brain volume was smaller.

Row | Substance | brain development (22 hpf) | volume of the whole brain compared to untreated fish | brain size | head size compared to untreated embryos
1 | 5′-TTCCTGTGCCTCCTCAGTCTCCATC-3′ (all phosphorodiamidate morpholino (PMO)) [Ikaros-knockdown, 25-mer antisense morpholino oligonucleotide (AMO) used for the Ikaros gene knockdown] | macrocephaly | much bigger | enlarged brains | bigger heads
2 | 5′-AGAGCTGTAGCTGGTTCCCCATTTC-3′ (all phosphorodiamidate morpholino (PMO)) [CRBN-knockdown, 25-mer antisense morpholino oligonucleotide (AMO) used for the CRBN gene knockdown, reference compound] |  |  | smaller brains | 
3 | 5′-TGTGTTTCTTGTGCTTTTTGCCCAT-3′ (all phosphorodiamidate morpholino (PMO)) [BRD7-knockdown, 25-mer antisense morpholino oligonucleotide (AMO) used for the BRD7 gene knockdown] |  | much bigger |  | bigger heads
